Key:
A549 = assay: Cytotoxicity against human A549 cells after 48 hrs by MTT assay; assay type: functional, cell-based; settings: A549, 48 h
[1] = Cytotoxicity against human sSPC-A1 cells after 48 hrs by MTT assay; assay type: functional, cell-based; settings: sSPC-A1, 48 h

Structure (SMILES)	IC50 (A549) [µM]	IC50 [1] [µM]
CCOC(=O)c1c(C)oc2nc(Nc3ccccc3)nc(N3CCN(C)CC3)c12	0.8	26.1
CCCCNc1nc(Nc2cccc(C)c2)nc2oc(C)c(C(=O)OCC)c12	9	–
CCOC(=O)c1c(C)oc2nc(Nc3cccc(C)c3)nc(N3CCN(C)CC3)c12	5.5	18.2
CCOC(=O)c1c(C)oc2nc(Nc3cccc(C)c3)nc(NC(C)C)c12	8.6	46.3
CCCCNc1nc(Nc2ccccc2)nc2oc(C)c(C(=O)OCC)c12	2.7	50.2
CCOC(=O)c1c(C)oc2nc(Nc3cccc(C)c3)nc(N(CC)CC)c12	8.8	–
CCOC(=O)c1c(C)oc2nc(Nc3cccc(C)c3)nc(N3CCOCC3)c12	14	70.8
CCOC(=O)c1c(C)oc2nc(Nc3ccccc3)nc(NCCO)c12	13	24.2
CCOC(=O)c1c(C)oc2nc(Nc3ccccc3)nc(N3CCOCC3)c12	15.2	69
CCOC(=O)c1c(C)oc2nc(Nc3ccccc3)nc(NC(C)C)c12	21.5	–
